Target: human SQOR (sulfide quinone oxidoreductase) (Homo sapiens, UniProt Q9Y6N5)
Assay: absorption spectroscopy, charge transfer complex formation
Type: binding
Conditions: covalent; 5 mM sulfite, 5 μM native SQOR, 20 °C, 1 min

human SQOR (sulfide quinone oxidoreductase), sequence (Q9Y6N5 42-450): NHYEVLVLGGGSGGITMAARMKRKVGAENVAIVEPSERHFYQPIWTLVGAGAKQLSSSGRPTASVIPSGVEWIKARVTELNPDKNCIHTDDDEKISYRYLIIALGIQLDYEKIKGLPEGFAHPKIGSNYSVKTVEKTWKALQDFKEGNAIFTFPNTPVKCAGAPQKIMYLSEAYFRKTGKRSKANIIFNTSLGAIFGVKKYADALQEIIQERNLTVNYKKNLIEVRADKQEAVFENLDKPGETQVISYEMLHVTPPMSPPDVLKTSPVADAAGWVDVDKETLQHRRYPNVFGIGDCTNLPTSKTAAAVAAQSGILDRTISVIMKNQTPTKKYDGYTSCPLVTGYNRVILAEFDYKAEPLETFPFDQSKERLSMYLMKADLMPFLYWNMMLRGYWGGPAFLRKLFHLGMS

With `O=S(O)O` [sulfite] the “absorption spectroscopy, charge transfer complex formation” value was “sulfite treatment, which forms a strong CT complex when added to native SQOR”.

From PMC7442744 (Journal of the American Chemical Society, 2020)
